Results from ChEMBL document CHEMBL5137070, “N-2-(Phenylamino) Benzamide Derivatives as Dual Inhibitors of COX-2 and Topo I Deter Gastrointestinal Cancers via Targeting Inflammation and Tumor Progression” (J Med Chem, 2022).
The source made the active and inactive calls. The rule behind the calls is not given here.

Legend:
[1] = test system: HGC-27; test: Antiproliferative activity against human HGC-27 cells assessed as reduction in cell proliferation incubated for 48 hrs by MTT assay; type: functional, cell-based; conditions: HGC-27, 48 h
[2] = test system: HT-29; test: Antiproliferative activity against human HT-29 cells assessed as reduction in cell proliferation incubated for 48 hrs by MTT assay; type: functional, cell-based; conditions: HT-29, 48 h
[3] = test system: SGC-7901; test: Antiproliferative activity against human SGC-7901 cells assessed as reduction in cell proliferation incubated for 48 hrs by MTT assay; type: functional, cell-based; conditions: SGC-7901, 48 h
[4] = molecular target: T1, DNA topoisomerase 1 (Homo sapiens) (UniProt P11387); test: Inhibition of human topoisomerase I assessed as DNA unwinding using DNA pBR322 as substrate at 2 uM incubated for 30 mins by ethidium bromide staining based agarose gel electrophoresis
T1 sequence (whole entry): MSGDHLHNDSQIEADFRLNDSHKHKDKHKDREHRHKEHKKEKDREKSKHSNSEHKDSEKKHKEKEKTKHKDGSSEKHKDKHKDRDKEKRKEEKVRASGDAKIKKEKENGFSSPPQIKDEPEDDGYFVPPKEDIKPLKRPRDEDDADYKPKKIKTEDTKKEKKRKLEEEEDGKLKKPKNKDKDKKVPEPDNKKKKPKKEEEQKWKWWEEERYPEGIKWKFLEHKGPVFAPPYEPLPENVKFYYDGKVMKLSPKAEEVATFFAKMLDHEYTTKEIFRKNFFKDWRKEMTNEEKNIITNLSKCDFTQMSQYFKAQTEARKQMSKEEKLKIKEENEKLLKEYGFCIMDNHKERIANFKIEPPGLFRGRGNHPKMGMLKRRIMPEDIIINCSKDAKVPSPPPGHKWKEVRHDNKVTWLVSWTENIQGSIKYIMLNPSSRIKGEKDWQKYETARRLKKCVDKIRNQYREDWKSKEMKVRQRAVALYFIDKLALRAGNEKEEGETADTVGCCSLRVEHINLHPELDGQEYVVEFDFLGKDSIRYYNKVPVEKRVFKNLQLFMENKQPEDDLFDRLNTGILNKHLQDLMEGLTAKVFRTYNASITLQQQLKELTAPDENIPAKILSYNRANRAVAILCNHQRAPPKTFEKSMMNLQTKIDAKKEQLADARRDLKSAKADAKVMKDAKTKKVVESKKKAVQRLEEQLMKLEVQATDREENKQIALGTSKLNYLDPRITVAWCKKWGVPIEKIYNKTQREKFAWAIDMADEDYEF

[5] = test system: RKO; test: Antiproliferative activity against human RKO cells assessed as reduction in cell proliferation incubated for 48 hrs by MTT assay; type: functional, cell-based
[6] = test system: CT26.WT; test: Antiproliferative activity against mouse CT26.WT cells assessed as reduction in cell proliferation incubated for 48 hrs by MTT assay; type: functional, cell-based
[7] = test system: RAW264.7; test: Cytotoxicity against mouse RAW264.7 cells assessed as reduction in cell viability at <=11.11 for 24 hrs by MTT assay; type: toxicity, cell-based; conditions: raw264.7, 24 h
[8] = test system: RKO; test: Anti-migration activity against human RKO cells assessed as inhibition of cell migration at 0.37 uM and measured after 24 hrs by wound healing assay; type: functional, cell-based
[9] = test system: RAW264.7; test: Antiinflammatory activity in mouse RAW264.7 cells assessed as reduction in LPS-induced COX-2 expression at 6.6 uM incubated for 1 hrs followed by LPS stimulation and measured after 24 hrs by western blot analysis; type: functional, cell-based; conditions: time 25.0 hrs

Row | SMILES | IC50 [1] [µM] | IC50 [2] [µM] | IC50 [3] [µM] | inhibition [4] [%] | IC50 [5] [µM] | IC50 [6] [µM] | Activity [7] [%] | Activity [8] | Activity [9]
1 | O=C(NCCc1ccc(O)cc1)c1ccccc1Nc1ccccc1 | 92.5 | 44.5 | 60.4 | 13.8 | > 100 | 67.8 |  |  | 
2 | O=C(Nc1ccc(O)cc1)c1ccccc1Nc1ccccc1 | 74.8 | 72.9 | 61.4 | 8.56 | 66.7 | 52.8 |  |  | 
3 | Cc1c(Cl)cccc1Nc1ccccc1C(=O)NCc1ccc(F)cc1 | 46.4 | > 100 | 51.8 | 24.7 | 62.4 | > 100 |  |  | 
4 | Cc1ccc(Nc2cccc(Cl)c2C)c(C(=O)NCc2ccc(O)c(F)c2)c1 | 56.8 | 16.2 | 62.1 | 19.7 | 50.6 | > 100 |  |  | 
5 | Cc1c(Cl)cccc1Nc1ccccc1C(=O)NCc1ccc(O)c(O)c1 | 16.5 | 19.5 | 59.7 | 55.3 | 59.4 | 9.64 |  |  | 
6 | Cc1c(Cl)cccc1Nc1ccccc1C(=O)NCc1ccc(O)cc1 | 34.2 | 13.5 | 21.1 | 35 | 8.32 | 10.5 |  |  | 
7 | OCc1ccc(O)cc1 [PARAHYDROXYBENZYL ALCOHOL] | > 100 | > 100 | > 100 |  | > 100 | > 100 |  |  | 
8 | Cc1c(Cl)cccc1Nc1ccccc1C(=O)NCc1cccc(O)c1 | 2.41 | 33.6 | 8.92 | 37.4 | 6.97 | 8.52 |  |  | 
9 | O=C(NCCCc1ccc(O)cc1)c1ccccc1Nc1ccccc1 | > 100 | > 100 | > 100 | 0 | > 100 | > 100 |  |  | 
10 | O=C(NCc1ccc(O)cc1)c1ccccc1Nc1ccccc1 | 54.8 | 50.9 | 61 | 37.3 | 69.9 | > 100 |  |  | 
11 | Cc1c(Cl)cccc1Nc1ccccc1C(=O)O [TOLFENAMIC ACID] | > 100 | > 100 | > 100 |  | > 100 | > 100 | > 80 |  | 
12 | Cc1c(Cl)cccc1Nc1ccccc1C(=O)NCc1ccc(O)c(F)c1 | 12 | 26.3 | 60.8 | 44.7 | 5.23 | 11.6 |  |  | 
13 | O=C(NCc1ccc(O)cc1)c1ccccc1Nc1cccc(Cl)c1 | 26.4 | 43.8 | 32.7 | 26.7 | 24.9 | 38.3 |  |  | 
14 | Cc1c(Cl)cccc1Nc1ccccc1C(=O)NCc1ccccc1O | 46.9 | 51.4 | 38 | 15.2 | 32.7 | > 100 |  |  | 
15 | COc1ccc(NC(=O)c2ccccc2Nc2cccc(Cl)c2C)cc1 | 2.32 | 5.97 | 5.75 | 2.55 | 3.69 | 11 |  | Active | Active
16 | Cc1c(Cl)cccc1Nc1ccccc1C(=O)NCc1cccc2c1OCO2 | 27.7 | 22.5 | 41.9 | 3.51 | 26.9 | > 100 |  |  | 
17 | Cc1c(Cl)cccc1Nc1ncccc1C(=O)NCc1ccc(O)cc1 | 50.2 | 47.3 | 33.9 | 6.87 | 23.7 | > 100 |  |  | 
18 | Cc1c(Cl)cccc1Oc1ccccc1C(=O)NCc1ccc(O)cc1 | 59.4 | > 100 | 90.4 | 17.6 | 101 | 36.8 |  |  | 
19 | CC[C@@]1(O)C(=O)OCc2c1cc1n(c2=O)Cc2cc3ccccc3nc2-1 [CAMPTOTHECIN] | 0.166 | 1.37 | 5.8 |  | 0.0617 | 0.43 |  | Active | 
20 | Cc1ccc(Cl)c(Nc2ccccc2C(=O)NCc2ccc(O)cc2)c1Cl | 35.2 | 23.7 | 20.5 | 5.57 | 28.9 | 83.4 |  |  | 
21 | Cc1c(Cl)cccc1N(C)c1ccccc1C(=O)NCc1ccc(O)cc1 | 58 | > 100 | 77.7 | 25.9 | > 100 | > 100 |  |  | 
22 | Cc1c(Cl)cccc1N(C)c1ccccc1C(=O)NCc1ccc(O)c(F)c1 | 88.1 | 52.5 | 99.9 | 22.3 | > 100 | > 100 |  |  | 
23 | Cc1cccc(Nc2ccccc2C(=O)NCc2ccc(O)cc2)c1C | 33.1 | 19.7 | 22.1 | 19.3 | 17.4 | > 100 |  |  | 
